Assay [1] relates to Staphylococcus aureus (ATCC #6538). Description: Zone of inhibition on agar plate inoculated with Staphylococcus aureus. The class given is cell-based. Here is the method: About 1 grams of each gelled composition was deposited on an agar plate that was previously inoculated with E. coli (ATCC #11229), a Gram-negative bacterium, and the plates were incubated for about 20 to about 28 hours at a temperature of about 35 to about 39° C. Antibacterial activity was evaluated by measuring the diameter of the zone of inhibition (i.e., a clear zone with no bacterial colonies present, measured in millimeters) around the deposited gel.
Similar plates were prepared wherein the inoculant was Staphylococcus aureus (ATCC #6538), a Gram-positive bacterium.
(§1) A commercially available vaginal cream formulation of benzydamine hydrochloride, TANTUM ROSA® cream, available from Angelini Pharmaceuticals, Rome, Italy was also evaluated, for comparison. According to the manufacturer's product literature TANTUM ROSA® cream contains about 0.5% benzydamine hydrochloride in a cream base containing propylene glycol, saturated triglycerides, ceteth 20, hydroxyethyl cellulose, sodium citrate dihydrate, citric acid monohydrate, benzoic acid, and purified water. In addition, a simple aqueous solution containing 0.5% by weight of benzydamine hydrochloride in deionized water was tested as a positive control. All materials were tested in triplicate.

The next assay concerns E. coli (ATCC #11229). As to the kind of experiment: Zone of inhibition on agar plate inoculated with E. coli. The class given is cell-based. How it is done:
as §1, with “Antibacterial activity was evaluated by measuring the diameter of the zone of inhibition (i.e., a clear zone with no bacterial colonies present, measured in millimeters) around the deposited gel. A commercially” for “A commercially”, “available from […] Pharmaceuticals, Rome,” for “available from Angelini Pharmaceuticals, Rome,”

The mark [2] stands for this setting: about 1 gram of composition on inoculated agar plate, about 20 to 28 hours, about 35 to 39° C., triplicate.

Where a name gives a salt, the structure may show the parent alone.

For the compound `CN(C)CCCOc1nn(Cc2ccccc2)c2ccccc12` [B-HCl, Benzydamine hydrochloride], the “Staphylococcus clear zone (diameter of zone of inhibition)” value in assay [1] (setting [2]) amounted to 14 mm. The “Antibacterial activity against Gram-positive bacteria (Staphylococcus aureus), in words” value in assay [1] (inhibition test on agar plate) was “effective”. Further, the “E. coli clear zone (diameter of zone of inhibition)” value in the assay on E. coli (ATCC #11229) (setting [2]) was determined as 12 mm. The “Antibacterial activity against Gram-negative bacteria (E. coli), in words” value with E. coli (ATCC #11229) (inhibition test on agar plate) is “effective”.
